# According to ChEMBL document CHEMBL1121621, “Synthesis and antiarrhythmic activity of alpha, alpha-bis[(dialkylamino)alkyl]phenylacetamides” (J Med Chem, 1980):
# Columns and labels:
# [1] = test system: Canis familiaris; assay: Antiarrhythmic activity was evaluated in mixed-breed or Beagle dogs after intravenous administration.; assay type: functional, Canis lupus familiaris, Heart
# [2] = test system: Canis familiaris; assay: Activity duration index was evaluated in mixed-breed or Beagle dogs after intravenous administration.; assay type: functional, Canis lupus familiaris
# [3] = test system: Canis familiaris; assay: Compound was evaluated for duration of action after oral administration at a dose 25 mg/kg to dog.; assay type: functional, Canis lupus familiaris
# [4] = test system: Canis familiaris; assay: Compound was evaluated for onset of action after oral administration at a dose 25 mg/kg to dog.; assay type: functional, Canis lupus familiaris
# [5] = test system: Canis familiaris; assay: Compound was evaluated for maximum reduction of ectopic beats after oral administration at a dose 25 mg/kg to dog.; assay type: functional, Canis lupus familiaris, Heart
# [6] = test system: Canis familiaris; assay: Minimum effective dose evaluated in mixed-breed or Beagle dogs after intravenous administration; assay type: functional; conditions: Canis lupus familiaris, read-out: MED
# [7] = Therapeutic ratio in mixed-breed or Beagle dogs after intravenous administration of the compound.; assay type: ADME, Canis lupus familiaris; conditions: dog, in vivo, read-out: TR
Structure (SMILES),AR [1],ADI [2],Duration [3] [min],Onset of action [4] [min],Reduction [5] [%],minimal effective dose [6] [mg/kg],selectivity ratio [7]
C=C[C@H]1CN2CC[C@H]1C[C@@H]2[C@@H](O)c1ccnc2ccc(OC)cc12 [QUINIDINE],2.2,0.4,110,110,57,13.5,
CC(C)N(CCC(CCN(C)C)(C(N)=O)c1ccccc1Cl)C(C)C (stereo not drawn),2.7,0.31,,,,7.5,4.7
COc1ccc(C(CCN(C(C)C)C(C)C)(CCN(C(C)C)C(C)C)C(N)=O)cc1,6.5,1.33,,,,4,3.1
CC(C)N(CCC(CCN(C)C)(C(N)=O)c1ccccc1)C(C)C (stereo not drawn),2.6,0.4,200,131,100,12,> 7.5
CC(C)N(CCC(CCN1CCCCC1)(C(N)=O)c1ccc(C(C)(C)C)cc1)C(C)C (stereo not drawn),7.8,0.82,,,,2.5,2.9
CC(C)N(CCC(CCN1C(C)CCCC1C)(C(N)=O)c1ccccc1F)C(C)C (stereo not drawn),8.3,2.2,,,,3.3,6.7
CC(C)N(CCC(CCCN1CC2CCC(CC2)C1)(C(N)=O)c1ccccc1Cl)C(C)C (stereo not drawn),6.3,0.3,,,,7,4
Cc1ccc(C(CCN(C(C)C)C(C)C)(CCN(C(C)C)C(C)C)C(N)=O)cc1,5.3,,,,,2,1.9
CC(C)N(CCC(CCCN1CCCCC1)(C(N)=O)c1ccccc1F)C(C)C (stereo not drawn),4.2,0.36,,,,7.5,> 6
CC(C)N(CCC(CCN(C(C)C)C(C)C)(C(N)=O)c1cccc(F)c1)C(C)C,6,0.66,,,,3,2.4
CC(C)N(CCC(CCN1CCOCC1)(C(N)=O)c1ccccc1)C(C)C (stereo not drawn),5.6,,52,285,84,5,7.6
CC(C)N(CCC(CCN(C(C)C)C(C)C)(C(N)=O)c1ccccc1Br)C(C)C,6.1,2.16,,,,1.5,8
CC(C)N(CCC(CCN1CCCCC1)(C(N)=O)c1ccc(F)cc1F)C(C)C (stereo not drawn),6,0.42,,,,6,> 4
CC(C)N(CCC(CCN1CCCCC1)(C(N)=O)c1ccc(F)cc1)C(C)C (stereo not drawn),4.4,0.58,,,,8.3,1
CC(C)N(CCC(CCN(C(C)C)C(C)C)(C(N)=O)c1ccccc1Cl)C(C)C,6.5,1.57,,,,2.5,3.5
CC(C)N(CCC(CCN1CCCCC1)(C(N)=O)c1cccc(Cl)c1)C(C)C (stereo not drawn),4.4,0.7,,,,2.3,3
CC(C)N(CCC(CCN1CC2CCC1CC2)(C(N)=O)c1ccccc1)C(C)C (stereo not drawn),6.7,1.38,,,,3.5,4.6
CC(C)c1ccc(C(CCN2CCCCC2)(CCN(C(C)C)C(C)C)C(N)=O)cc1 (stereo not drawn),6.2,0.75,,,,3,2
CC(C)N(CCC(CCCN(C)C)(C(N)=O)c1ccccc1)C(C)C (stereo not drawn),,,,,,20,
Cc1ccccc1C(CCN(C(C)C)C(C)C)(CCN(C(C)C)C(C)C)C(N)=O,6.6,2.57,,,,1.5,6

Structure (SMILES),AR [1],ADI [2],Duration [3] [min],Onset of action [4] [min],Reduction [5] [%],minimal effective dose [6] [mg/kg],selectivity ratio [7]
CC(C)N(CCC(CCCN1CCCCC1)(C(N)=O)c1ccccc1Cl)C(C)C (stereo not drawn),4.6,1.55,,,,3.5,5
CC(C)N(CCC(CCN(C(C)C)C(C)C)(C(N)=O)c1cccc(C(F)(F)F)c1)C(C)C,6,1.5,,,,3,2.4
CC(C)N(CCC(CCn1cccc1)(C(N)=O)c1ccccc1F)C(C)C (stereo not drawn),3.6,0.59,,,,7.5,7.3
CC(C)N(CCC(CCN1CCCCCC1)(C(N)=O)c1ccccc1)C(C)C (stereo not drawn),6.8,0.68,,,,3,8.7
CC(C)N(CCC(CCN1CCCCCC1)(C(N)=O)c1ccccc1F)C(C)C (stereo not drawn),6.9,0.78,,,,3,7.5
CC(C)N(CCC(CCN(C)C)(C(N)=O)c1ccc(F)cc1)C(C)C (stereo not drawn),2.2,0.21,,,,15,1.1
CC(C)N(CCC(CCN(C(C)C)C(C)C)(C(N)=O)c1cccc(Cl)c1)C(C)C,6.9,1.42,,,,1.5,6.7
CC(C)N(CCC(CCCN(C)C)(C(N)=O)c1ccccc1F)C(C)C (stereo not drawn),1.8,0.12,,,,12.5,> 4
CC(C)N(CCC(CCN(C(C)C)C(C)C)(C(N)=O)c1c(Cl)cccc1Cl)C(C)C,6.9,1.2,,,,2.7,4.6
CC(C)N(CCC(CCN(C(C)C)C(C)C)(C(N)=O)c1ccc(Cl)cc1Cl)C(C)C,7.6,2.14,,,,1.5,4
CC(C)N(CCC(CCN1CCCCC1)(C(N)=O)c1ccc(Cl)cc1)C(C)C (stereo not drawn),6.6,0.51,,,,3.5,1
CC(C)N(CCC(CCN1CCCCC1)(C(N)=O)c1ccccc1Br)C(C)C (stereo not drawn),7.2,1.2,,,,1.5,13
CC(C)N(CCC(CCN(C(C)C)C(C)C)(C(N)=O)c1ccc(Cl)c(Cl)c1)C(C)C,5.8,0.63,,,,2.5,4.6
CC1CCCCN1CCC(CCN(C(C)C)C(C)C)(C(N)=O)c1ccccc1F (stereo not drawn),4.6,0.6,,,,7.5,3.2
CC(C)N(CCC(CCn1cccc1)(C(N)=O)c1ccccc1)C(C)C (stereo not drawn),2.3,0.13,,,,15,> 3.3
CC(C)N(CCC(CCN(C)C)(C(N)=O)c1ccc(C(C)(C)C)cc1)C(C)C (stereo not drawn),4.9,0.76,,,,5,1.3
CCN(CC)CCC(CCN(C(C)C)C(C)C)(C(N)=O)c1ccccc1 (stereo not drawn),4.6,0.94,,,,7.5,5.5
CC(C)N(CCC(CCN(C(C)C)C(C)C)(C(N)=O)c1ccc(F)cc1F)C(C)C,7.7,0.69,,,,4.5,4.7
CC(C)N(CCC(CCN1CCN2CCCC2C1)(C(N)=O)c1ccccc1)C(C)C (stereo not drawn),2.7,,,,,10,> 5
